Source: US20120270237A9, “METHODS FOR THE IDENTIFICATION OF KINASE INTERACTING MOLECULES AND FOR THE PURIFICATION OF KINASE PROTEINS” (Cellzone AG, priority 2009, published 2012)

Tests used:
Assay in all cases: Kinobeads competition binding, HL60 cell lysate
Conditions in all cases: 10 μM free compound
MPSK1 = MPSK1 (Homo sapiens, UniProt O75716); set-up: endogenous in cells; host or cells: HL60
Protocol: (§1) To one aliquot of cell lysate 10 μM of the free compound (FIG. 3, CZC31326) was added and allowed to bind to proteins in the lysate. Then the affinity matrix with the immobilized compound (Example 1) was added to capture proteins that were not interacting with the previously added free compound. Beads were separated from the lysate and bead bound proteins were eluted in SDS sample buffer and subsequently separated by SDS-Polyacrylamide gel electrophoresis (FIG. 4). Suitable gel bands were cut out and subjected to in-gel proteolytic digestion with trypsin. The second lysate aliquot was processed identically, however no free compound was added (DMSO solvent control). Peptides originating from samples 1 and 2 were labeled with iTRAQ reagents (iTRAQ 114 and iTRAQ 117) and the combined samples were analyzed with a nano-flow liquid chromatography system coupled online to a tandem mass spectrometer (LC-MS/MS) experiment followed by iTRAQ reporter ion quantification in the MS/MS spectra (Ross et al., 2004. Mol. Cell. Proteomics 3(12):1154-1169). Further experimental protocols can be found in WO2006/134056 and a previous publication (Bantscheff et al., 2007. Nature Biotechnology 25, 1035-1044). Sepharose-beads with the immobilized compound (100 μl beads per pull-down experiment) were equilibrated in lysis buffer and incubated with a cell lysate sample containing 50 mg of protein on an end-over-end shaker (Roto Shake Genie, Scientific Industries Inc.) for 2 hours at 4° C. Beads were collected, transferred to Mobicol-columns (MoBiTech 10055) and washed with 10 ml lysis buffer containing 0.4% NP40 detergent, followed by 5 ml lysis buffer containing 0.2% detergent. To elute bound proteins, 60 μl 2×SDS sample buffer was added to the column. The column was incubated for 30 minutes at 50° C. and the eluate was transferred to a siliconized microfuge tube by centrifugation. Proteins were then alkylated with 108 mM iodoacetamid. Proteins were then separated by SDS-Polyacrylamide electrophoresis (SDS-PAGE). The peptide extracts of samples treated with 10 μM of free compound (CZC31326) and the solvent control (0.5% DMSO) were treated with different variants of the isobaric tagging reagent (iTRAQ Reagents Multiplex Kit, part number 4352135, Applied Biosystems, Foster City, Calif., USA). The iTRAQ reagents are a set of multiplexed, amine-specific, stable isotope reagents that can label peptides on amino groups in up to four different biological samples enabling simultaneous identification and quantitation of peptides. The iTRAQ reagents were used according to instructions provided by the manufacturer. The samples were resuspended in 10 μl 50 mM TEAB solution, pH 8.5 and 10 μl ethanol were added. The iTRAQ reagent was dissolved in 120 μl ethanol and 10 μl of reagent solution were added to the sample. The labeling reaction was performed at room temperature for one hour on a horizontal shaker and stopped by adding 5 μl of 100 mM TEAB and 100 mM glycine in water. The two labeled sampled were then combined, dried in a vacuum centrifuge and resuspended in 10 μl of 0.1% formic acid in water. Relative protein quantitation was performed using peak areas of iTRAQ reporter ion signals essentially as described in an earlier publication (Bantscheff et al., 2007. Nature Biotechnology 25, 1035-1044).

TYK2 = TYK2 (Homo sapiens, UniProt P29597); set-up: endogenous in cells; host or cells: HL60
Protocol: as §1

MYT1 = MYT1 (Homo sapiens, UniProt Q99640); set-up: endogenous in cells; host or cells: HL60
Protocol: as §1

GSK3A = GSK3A (Homo sapiens, UniProt P49840); set-up: endogenous in cells; host or cells: HL60
Protocol: as §1

MSK2 = MSK2 (Homo sapiens, UniProt O75676); set-up: endogenous in cells; host or cells: HL60
Protocol: as §1

HIPK2 = HIPK2 (Homo sapiens, UniProt Q9H2X6); set-up: endogenous in cells; host or cells: HL60
Protocol: as §1

TAO3 = molecular target: T1, TAO3 (Homo sapiens, UniProt Q9H2K8); set-up: endogenous in cells; host or cells: HL60
T1 sequence (Q9H2K8 1-898): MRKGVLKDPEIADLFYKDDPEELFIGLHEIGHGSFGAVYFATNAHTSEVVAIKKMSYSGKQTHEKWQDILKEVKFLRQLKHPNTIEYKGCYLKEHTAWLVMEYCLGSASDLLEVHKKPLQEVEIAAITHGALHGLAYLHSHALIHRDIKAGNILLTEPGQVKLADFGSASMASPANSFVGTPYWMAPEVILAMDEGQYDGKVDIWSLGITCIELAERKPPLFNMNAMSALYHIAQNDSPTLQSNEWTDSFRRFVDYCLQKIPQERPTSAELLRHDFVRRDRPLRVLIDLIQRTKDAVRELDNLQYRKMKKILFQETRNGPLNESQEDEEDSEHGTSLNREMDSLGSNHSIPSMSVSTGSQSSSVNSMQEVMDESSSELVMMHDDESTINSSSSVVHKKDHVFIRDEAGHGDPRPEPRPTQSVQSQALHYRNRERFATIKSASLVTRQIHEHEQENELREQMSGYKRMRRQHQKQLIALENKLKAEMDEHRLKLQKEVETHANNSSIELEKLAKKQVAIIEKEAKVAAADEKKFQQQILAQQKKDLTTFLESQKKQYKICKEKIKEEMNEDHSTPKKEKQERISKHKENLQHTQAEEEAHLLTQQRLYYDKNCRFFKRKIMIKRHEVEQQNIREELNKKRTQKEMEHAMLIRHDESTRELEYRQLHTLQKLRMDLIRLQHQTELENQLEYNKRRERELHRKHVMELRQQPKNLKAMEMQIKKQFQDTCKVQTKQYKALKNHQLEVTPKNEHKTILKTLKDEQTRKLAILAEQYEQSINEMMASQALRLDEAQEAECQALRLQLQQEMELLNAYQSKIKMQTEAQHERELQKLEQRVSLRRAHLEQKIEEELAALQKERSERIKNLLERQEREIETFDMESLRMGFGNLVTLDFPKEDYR
Protocol: as §1

MAP2K3 = MAP2K3 (Homo sapiens, UniProt P46734); set-up: Identified kinases with CZC31326 from HL60 lysate; endogenous in cells; host or cells: HL60
Protocol: as §1, with “The iTRAQ reagents were used according to instructions provided by the manufacturer. The samples were resuspended in 10 μl 50 mM TEAB solution, pH 8.5 and 10 μl ethanol were added. The iTRAQ reagent was dissolved in 120 μl ethanol and 10 μl of reagent solution were added to the sample. The labeling reaction was performed at room temperature for one hour on a horizontal shaker and stopped by adding 5 μl of 100 mM TEAB and 100 mM glycine in water. The two labeled sampled were then combined, dried in a vacuum centrifuge and resuspended in 10 μl of 0.1% formic acid in water.” left out

GSK3A, sequence (P49840 whole entry): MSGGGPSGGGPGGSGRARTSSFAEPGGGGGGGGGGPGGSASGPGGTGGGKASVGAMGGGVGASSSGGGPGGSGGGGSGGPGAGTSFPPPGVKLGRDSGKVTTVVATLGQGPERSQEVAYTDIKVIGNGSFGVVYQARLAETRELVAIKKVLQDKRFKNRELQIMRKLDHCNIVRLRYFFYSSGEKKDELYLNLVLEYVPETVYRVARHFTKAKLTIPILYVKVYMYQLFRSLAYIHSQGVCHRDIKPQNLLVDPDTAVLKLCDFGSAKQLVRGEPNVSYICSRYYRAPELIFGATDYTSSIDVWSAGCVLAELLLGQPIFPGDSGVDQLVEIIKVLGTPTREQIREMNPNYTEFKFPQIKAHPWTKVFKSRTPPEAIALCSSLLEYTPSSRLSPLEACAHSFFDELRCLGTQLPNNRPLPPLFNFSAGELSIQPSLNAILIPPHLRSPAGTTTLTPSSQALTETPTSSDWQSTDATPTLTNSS
MSK2, sequence (O75676 whole entry): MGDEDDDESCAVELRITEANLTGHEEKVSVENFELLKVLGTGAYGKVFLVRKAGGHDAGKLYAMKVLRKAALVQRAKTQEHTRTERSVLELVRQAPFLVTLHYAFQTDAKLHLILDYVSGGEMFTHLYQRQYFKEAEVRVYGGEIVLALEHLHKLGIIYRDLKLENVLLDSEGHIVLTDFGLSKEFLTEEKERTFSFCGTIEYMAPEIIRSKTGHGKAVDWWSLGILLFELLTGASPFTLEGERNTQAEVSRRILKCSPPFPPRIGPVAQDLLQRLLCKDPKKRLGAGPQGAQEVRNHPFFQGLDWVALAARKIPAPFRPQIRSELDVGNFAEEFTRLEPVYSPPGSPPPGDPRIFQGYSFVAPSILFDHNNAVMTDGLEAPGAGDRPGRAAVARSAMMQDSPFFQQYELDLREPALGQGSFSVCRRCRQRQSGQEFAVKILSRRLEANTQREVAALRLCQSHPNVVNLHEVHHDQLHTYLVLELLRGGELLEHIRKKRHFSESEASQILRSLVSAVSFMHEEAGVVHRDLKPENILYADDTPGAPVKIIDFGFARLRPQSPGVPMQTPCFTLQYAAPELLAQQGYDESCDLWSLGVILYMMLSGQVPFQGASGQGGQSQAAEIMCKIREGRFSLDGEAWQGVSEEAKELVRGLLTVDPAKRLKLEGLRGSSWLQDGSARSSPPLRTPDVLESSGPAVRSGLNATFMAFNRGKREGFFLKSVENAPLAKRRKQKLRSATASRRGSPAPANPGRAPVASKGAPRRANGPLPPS
MPSK1, sequence (O75716 whole entry): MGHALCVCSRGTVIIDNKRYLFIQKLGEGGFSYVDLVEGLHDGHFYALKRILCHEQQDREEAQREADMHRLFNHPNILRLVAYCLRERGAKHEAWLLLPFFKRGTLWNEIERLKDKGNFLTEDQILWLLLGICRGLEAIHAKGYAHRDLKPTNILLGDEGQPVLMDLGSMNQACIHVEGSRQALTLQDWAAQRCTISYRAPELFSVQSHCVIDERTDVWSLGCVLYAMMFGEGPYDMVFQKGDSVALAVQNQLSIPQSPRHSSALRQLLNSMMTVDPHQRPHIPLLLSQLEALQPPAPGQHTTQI
MAP2K3, sequence (P46734 whole entry): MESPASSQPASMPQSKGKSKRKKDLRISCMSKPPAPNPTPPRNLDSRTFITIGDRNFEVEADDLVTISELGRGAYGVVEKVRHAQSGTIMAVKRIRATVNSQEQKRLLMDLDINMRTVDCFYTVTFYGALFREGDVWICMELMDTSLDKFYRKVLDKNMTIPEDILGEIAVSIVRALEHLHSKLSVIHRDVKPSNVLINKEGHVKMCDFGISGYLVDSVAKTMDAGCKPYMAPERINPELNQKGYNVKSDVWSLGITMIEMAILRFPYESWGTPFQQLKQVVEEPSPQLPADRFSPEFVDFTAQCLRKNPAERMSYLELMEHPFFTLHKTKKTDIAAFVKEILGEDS
MYT1, sequence (Q99640 whole entry): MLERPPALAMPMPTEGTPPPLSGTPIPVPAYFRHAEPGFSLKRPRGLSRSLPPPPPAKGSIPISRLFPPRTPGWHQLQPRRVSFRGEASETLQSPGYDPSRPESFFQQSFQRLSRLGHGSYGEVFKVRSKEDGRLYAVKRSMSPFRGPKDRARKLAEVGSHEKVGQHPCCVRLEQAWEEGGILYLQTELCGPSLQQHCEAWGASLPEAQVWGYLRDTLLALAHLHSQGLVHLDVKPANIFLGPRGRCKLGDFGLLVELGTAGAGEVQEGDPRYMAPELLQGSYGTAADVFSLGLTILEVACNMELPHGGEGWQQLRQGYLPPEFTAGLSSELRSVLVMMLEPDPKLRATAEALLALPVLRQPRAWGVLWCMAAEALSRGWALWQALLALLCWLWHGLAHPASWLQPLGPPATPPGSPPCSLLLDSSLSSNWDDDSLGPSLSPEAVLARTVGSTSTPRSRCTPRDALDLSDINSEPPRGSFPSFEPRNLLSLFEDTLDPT
TYK2, sequence (P29597 whole entry): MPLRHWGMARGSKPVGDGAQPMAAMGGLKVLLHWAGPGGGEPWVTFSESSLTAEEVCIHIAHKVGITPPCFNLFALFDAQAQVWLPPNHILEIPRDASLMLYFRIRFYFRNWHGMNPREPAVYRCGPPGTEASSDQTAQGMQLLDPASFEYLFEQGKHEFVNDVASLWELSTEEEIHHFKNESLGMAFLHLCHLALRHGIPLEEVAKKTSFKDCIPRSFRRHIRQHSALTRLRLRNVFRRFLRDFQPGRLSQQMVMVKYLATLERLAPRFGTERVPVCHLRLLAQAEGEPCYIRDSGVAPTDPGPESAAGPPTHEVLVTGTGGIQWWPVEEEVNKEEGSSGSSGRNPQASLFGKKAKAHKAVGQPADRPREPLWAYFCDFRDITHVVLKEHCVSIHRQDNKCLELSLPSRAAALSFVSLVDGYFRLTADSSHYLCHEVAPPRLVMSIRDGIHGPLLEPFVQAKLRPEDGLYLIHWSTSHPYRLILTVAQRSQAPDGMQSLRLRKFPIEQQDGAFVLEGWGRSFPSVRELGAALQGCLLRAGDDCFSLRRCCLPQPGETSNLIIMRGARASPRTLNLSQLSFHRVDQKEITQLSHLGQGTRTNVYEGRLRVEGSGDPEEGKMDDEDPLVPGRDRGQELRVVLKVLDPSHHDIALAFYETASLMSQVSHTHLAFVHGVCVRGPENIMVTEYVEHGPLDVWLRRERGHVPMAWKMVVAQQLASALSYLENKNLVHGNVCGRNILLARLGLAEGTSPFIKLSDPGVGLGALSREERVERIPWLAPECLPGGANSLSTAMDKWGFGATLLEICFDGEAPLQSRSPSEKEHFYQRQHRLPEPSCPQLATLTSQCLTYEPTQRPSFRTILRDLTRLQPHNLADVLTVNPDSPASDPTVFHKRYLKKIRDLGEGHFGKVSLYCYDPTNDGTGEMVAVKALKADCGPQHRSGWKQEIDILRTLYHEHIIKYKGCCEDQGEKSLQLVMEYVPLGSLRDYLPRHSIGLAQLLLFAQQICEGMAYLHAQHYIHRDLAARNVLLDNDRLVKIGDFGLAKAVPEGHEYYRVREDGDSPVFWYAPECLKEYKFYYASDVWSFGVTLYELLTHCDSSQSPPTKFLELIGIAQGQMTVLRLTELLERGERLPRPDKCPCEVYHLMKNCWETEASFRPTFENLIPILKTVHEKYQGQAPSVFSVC
HIPK2, sequence (Q9H2X6 whole entry): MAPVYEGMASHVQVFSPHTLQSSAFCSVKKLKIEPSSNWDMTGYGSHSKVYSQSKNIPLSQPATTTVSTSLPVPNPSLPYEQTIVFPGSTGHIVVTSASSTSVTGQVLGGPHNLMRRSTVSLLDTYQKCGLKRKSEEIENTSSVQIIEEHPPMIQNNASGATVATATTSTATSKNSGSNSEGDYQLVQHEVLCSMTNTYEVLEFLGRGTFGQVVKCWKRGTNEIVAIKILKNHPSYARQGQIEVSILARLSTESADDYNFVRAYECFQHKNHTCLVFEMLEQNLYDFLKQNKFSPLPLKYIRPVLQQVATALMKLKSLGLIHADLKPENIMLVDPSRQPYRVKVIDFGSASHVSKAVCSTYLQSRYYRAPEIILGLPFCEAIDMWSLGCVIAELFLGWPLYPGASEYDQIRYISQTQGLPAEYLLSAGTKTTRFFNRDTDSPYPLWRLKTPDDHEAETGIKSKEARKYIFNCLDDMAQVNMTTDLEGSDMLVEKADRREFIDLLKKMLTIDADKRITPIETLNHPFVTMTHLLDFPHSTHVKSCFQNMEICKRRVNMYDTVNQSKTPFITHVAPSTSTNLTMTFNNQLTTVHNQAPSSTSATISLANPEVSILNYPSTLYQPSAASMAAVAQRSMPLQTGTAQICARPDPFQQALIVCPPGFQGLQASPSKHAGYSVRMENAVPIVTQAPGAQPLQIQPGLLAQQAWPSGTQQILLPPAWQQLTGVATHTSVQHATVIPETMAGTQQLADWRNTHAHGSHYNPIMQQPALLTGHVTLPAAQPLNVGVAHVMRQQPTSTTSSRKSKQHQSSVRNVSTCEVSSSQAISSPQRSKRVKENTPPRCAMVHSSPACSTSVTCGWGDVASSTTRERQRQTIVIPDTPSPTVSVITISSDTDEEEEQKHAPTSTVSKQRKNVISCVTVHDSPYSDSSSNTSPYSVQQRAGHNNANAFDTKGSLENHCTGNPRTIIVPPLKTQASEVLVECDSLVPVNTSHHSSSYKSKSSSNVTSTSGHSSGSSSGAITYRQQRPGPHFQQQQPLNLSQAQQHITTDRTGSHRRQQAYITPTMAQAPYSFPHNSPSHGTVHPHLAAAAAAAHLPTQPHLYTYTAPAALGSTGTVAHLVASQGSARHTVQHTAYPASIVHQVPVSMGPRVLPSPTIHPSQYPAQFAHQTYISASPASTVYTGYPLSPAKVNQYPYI

CS(=O)(=O)Nc1ccccc1Nc1nc(Nc2cccc(OCCN)c2)ncc1Cl [CZC31326, N-(2-(2-(3-(2-aminoethoxy)phenylamino)-5-chloropyrimidin-4-ylamino)phenyl)methanesulfonamide]
inhibition at 10 µM (MPSK1): 93.4% | Competition % (TYK2): 97.1% | Competition % (MYT1): 90.5% | inhibition at 10 µM (GSK3A): 96.2% | inhibition at 10 µM (MSK2): 96.8% | inhibition at 10 µM (HIPK2): 94.4% | inhibition at 10 µM (TAO3): 98% | inhibition at 10 µM (MAP2K3): 90.9%
